In ChEMBL document CHEMBL1152295, “Novel 3,3-disubstituted pyrrolidines as selective triple serotonin/norepinephrine/dopamine reuptake inhibitors” (Bioorg Med Chem Lett, 2008):

Legend:
in vitro [1] = settings: human
in vitro [2] = settings: human; remark: listed apart in the source
in vitro [3] = settings: human, liver microsomes
Caco-2 [4] = settings: human, caco-2, 10 µM
Caco-2 [5] = settings: human, caco-2, 10 µM; remark: listed apart in the source

Papp B→A at 10 µM (in vitro [1]; Caco-2, Papp) [×10⁻⁶ cm/s] | Papp A→B at 10 µM (in vitro [2]; Caco-2, Papp) [×10⁻⁶ cm/s] | microsomal CLint (in vitro [3]; Stability) [µL/min/mg] | Compound | other results
22 | 10 | 28 | c1ccc(CC2(c3ccc4[nH]ncc4c3)CCNC2)cc1 (stereo not drawn) | –
– | – | – | Clc1ccc([C@]23CNC[C@H]2C3)cc1Cl [AMITIFADINE] | Papp B→A at 10 µM (in vitro [1]; Caco-2): 2.1 ×10⁻⁶ cm/s; Papp A→B at 10 µM (in vitro [2]; Caco-2): 2.9 ×10⁻⁶ cm/s; microsomal CLint (in vitro [3]): 47 µL/min/mg
– | – | 106 | Cn1ccc2cc(C3(Cc4ccccc4)CCNC3)ccc21 (stereo not drawn) | –
– | – | 84 | Fc1ccc(CC2(c3ccc4[nH]ccc4c3)CCNC2)cc1 (stereo not drawn) | –
– | – | 198 | c1ccc(CC2(c3ccc4sccc4c3)CCNC2)cc1 (stereo not drawn) | –
3.4 | 3.5 | 47.8 | CCOC(=O)c1cc2cc(C3(Cc4ccccc4)CCNC3)ccc2[nH]1 (stereo not drawn) | –
9.9 | 21 | 154 | c1ccc(CC2(c3ccc4[nH]ccc4c3)CCNC2)cc1 (stereo in doubt; (+)-16) [5-(3-BENZYLPYRROLIDIN-3-YL)-1H-INDOLE (STRUCTURAL MIX)] | –
– | – | – | CCCC1(c2ccc3[nH]ccc3c2)CCNC1 (stereo not drawn) | Papp B→A at 10 µM (in vitro [1]; Caco-2): 24 ×10⁻⁶ cm/s; Papp A→B at 10 µM (in vitro [2]; Caco-2): 16.5 ×10⁻⁶ cm/s; microsomal CLint (in vitro [3]): 2.3 µL/min/mg
19 | 9.4 | 38 | CCCCC1(c2ccc3[nH]ccc3c2)CCNC1 (stereo not drawn) | –
24 | 4 | 12.8 | CN(C)C(=O)c1cc2cc(C3(Cc4ccccc4)CCNC3)ccc2[nH]1 (stereo not drawn) | –
18 | 3.2 | 86 | c1ccc(CC2(c3ccc4[nH]ccc4c3)CCNC2)nc1 (stereo not drawn) | –
– | – | 77 | COc1cccc(CC2(c3ccc4[nH]ccc4c3)CCNC2)c1 (stereo not drawn) | –
17 | 0.6 | 1.4 | NC(=O)c1cc2cc(C3(Cc4ccccc4)CCNC3)ccc2[nH]1 (stereo not drawn) | –
– | – | – | c1ccc(CC2(c3ccc4[nH]ccc4c3)CCNC2)cc1 (stereo in doubt; 16) [5-(3-BENZYLPYRROLIDIN-3-YL)-1H-INDOLE (STRUCTURAL MIX)] | Papp (Caco-2 [4]): 14 ×10⁻⁶ cm/s; Papp (Caco-2 [5]): 17 ×10⁻⁶ cm/s
